Laboratory results reported in patent publication US9521847B2, “Synergistic weed control from applications of pyridine carboxylic acid herbicides and synthetic auxin herbicides and/or auxin transport inhibitors” (Dow AgroSciences LLC, priority 2014, dated 2016).
Read-outs that look alike come from different tables or passages of the source.

Assays:
[1] = test system: poinsettia (Euphorbia heterophylla, EPHHL); assay: Greenhouse postemergence trial, % visual injury; details: Euphorbia heterophylla, post-emergence; for pest or weed control at 5 g/ha: read-out: % visual injury Obs, 5 g ae/ha alone, 20-22 d
[2] = test system: grain sorghum (Sorghum vulgare, SORVU); assay: Greenhouse postemergence trial, % visual injury; type: in vivo; details: for % visual injury Obs: 5 g ae/ha alone, 20-22 d
[3] = test system: wild pansy (Viola tricolor, VIOTR); assay: Greenhouse postemergence trial, % visual injury; details: for pest or weed control at 5 g/ha: Viola tricolor, post-emergence, read-out: % visual injury Obs
[4] = test system: nutsedge (Cyperus esculentus, CYPES); assay: Greenhouse postemergence trial, % visual injury; type: in vivo; details: for pest or weed control at 5 g/ha: Cyperus, post-emergence, 5 g ae/ha alone, 20-22 d, read-out: % visual injury Obs
[5] = test system: common chickweed (Stellaria media, STEME); assay: Greenhouse postemergence trial, % visual injury; type: in vivo; details: 5 g ae/ha alone; 20-22 d
[6] = test system: spring rape (Brassica napus, BRSNN); assay: Greenhouse postemergence trial, % visual injury; details: Brassica napus, post-emergence
winter wheat (TRZAW) [7] = assay: Greenhouse postemergence trial, crop phytotoxicity (% visual injury); details: for % visual injury Obs: crop, 5 g ae/ha alone, 20-22 d
[8] = test system: Canadian thistle (CIRAR, Cirsium arvense); assay: Greenhouse postemergence trial, % visual injury; details: for pest or weed control at 5 g/ha: Cirsium arvense, post-emergence;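 for all read-outs here: plants sprayed at second to third true leaf stage, injury scored visually 20-22 d later against solvent-blank sprayed controls, 0 meaning no injury and 100 complete kill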
[9] = test system: wild buckwheat (Polygonum convolvulus, POLCO); assay: Greenhouse postemergence trial, % visual injury; type: in vivo; details: 5 g ae/ha alone; 20-22 d
[10] = test system: velvetleaf (Abutilon theophrasti, ABUTH); assay: Greenhouse postemergence trial, % visual injury; type: in vivo; details: for % visual injury Obs: 5 g ae/ha alone, 20-22 d
maize (ZEAMX) = assay: Greenhouse postemergence trial, crop phytotoxicity (% visual injury); details: for % visual injury Obs: crop, 5 g ae/ha alone, 20-22 d
[11] = test system: common lambsquarters (CHEAL, Chenopodium album L.); assay: Greenhouse postemergence trial, % visual injury; type: in vivo; details: Chenopodium album, post-emergence; 5 g ae/ha alone; 20-22 d; read-out: % visual injury Obs
[12] = test system: sunflower (Helianthus annus, HELAN); assay: Greenhouse postemergence trial, % visual injury; type: in vivo; details: 5 g ae/ha alone; 20-22 d
winter wheat (TRZAW) [13] = details: Triticum aestivum (winter wheat), in vivo
[14] = test system: kochia (KCHSC, Kochia scoparia); assay: Greenhouse postemergence trial, % visual injury; type: in vivo; details: KCHSC
Description: Following the protocol in Example 1, compound 1 and compound 2 were combined with 2,4 D EHE (EC) and applied to kochia (KCHSC, Kochia scoparia) and the phytotoxicity of the herbicidal compositions was measured.
Following the protocol in Example 1, compound 1 (EC) and Compound 2 (SC) were combined with diflufenzopyr and applied to kochia (Kochia scoparia, KCHSC) and the phytotoxicity of the herbicidal composition was measured.

common rice (ORYSA) = assay: Greenhouse postemergence trial, crop phytotoxicity (% visual injury); details: ORYSA, 10 g ae/ha
[15] = test system: ivyleaf morningglory (Ipomoea hederacea, IPOHE); assay: Greenhouse postemergence trial, % visual injury; details: Ipomoea, post-emergence, read-out: % visual injury, Obs, IPOHE, 10 g ae/ha
[16] = read-out: % visual injury (Obs)

SMILES	pest or weed control at 5 g/ha [1] [%]	% visual injury Obs [2] [%]	pest or weed control at 5 g/ha [3] [%]	pest or weed control at 5 g/ha [4] [%]	plant injury at 5 g/ha ([6]; read-out: % visual injury Obs) [%]	% visual injury Obs (winter wheat (TRZAW) [7]) [%]	pest or weed control at 5 g/ha ([8]; read-out: % visual injury Obs) [%]	% visual injury Obs [9] [%]	% visual injury Obs [10] [%]	% visual injury Obs (maize (ZEAMX)) [%]	pest or weed control at 5 g/ha [11] [%]	also measured
COc1c(N)nc(-c2ccc3sccc3c2)nc1C(=O)O [compound 11]	25	5	10	0	10	10	5	10				% visual injury Obs [5]: 40%
COC(=O)c1nc(-c2ccc3ccoc3c2F)nc(N)c1OC [compound 12]	35	0	18	5	50	0	10		10	0	84	
COC(=O)c1nc(-c2ccc3cc[nH]c3c2F)c(F)c(/N=C/N(C)C)c1Cl [compound 13]	75		25	0			10	25	0		60	% visual injury Obs [5]: 50%
Nc1c(F)c(-c2cc(F)c3[nH]ccc3c2)nc(C(=O)O)c1Cl [compound 14]	20	0	10		10	0	5		0	0	15	% visual injury Obs [12]: 10%
C=C(F)c1c(C(=O)O)nc(-c2ccc3cc[nH]c3c2F)c(F)c1N [compound 15]	73	0	33	25		5	15	30	30	0		% visual injury Obs [12]: 90%
Nc1c(F)c(-c2ccc3cc[nH]c3c2)nc(C(=O)O)c1Cl [compound 16]												% visual injury (Obs) (winter wheat (TRZAW) [13]): 0%; % visual injury (Obs) ([2]; compound 16 5 g ae/ha): 13%; % visual injury (Obs) ([3]; compound 16 5 g ae/ha): 25%; % visual injury (Obs) ([4]; compound 16 5 g ae/ha): 25%; plant injury at 5 g/ha [6, 16]: 60%; pest or weed control at 5 g/ha [8, 16]: 20%
C/C(=N\NC(=O)Nc1cc(F)cc(F)c1)c1ncccc1C(=O)O [diflufenzopyr]												% visual injury, Obs. ([14]; diflufenzopyr 3.5 g ae/ha, Table 60): 0%; % visual injury, Obs. ([14]; diflufenzopyr 3.5 g ae/ha, Table 61): 0%; % visual injury, Obs. ([14]; diflufenzopyr 7 g ae/ha, Table 60): 0%; % visual injury, Obs. ([14]; diflufenzopyr 7 g ae/ha, Table 61): 0%
Nc1c(Cl)c(Cl)nc(C(=O)O)c1Cl [picloram-potassium, reference compound]												pest or weed control at 10 g/ha ([1]; read-out: % visual injury, Obs, EPHHL, 10 g ae/ha): 20%; % visual injury, Obs ([2]; SORVU, 10 g ae/ha): 0%; % visual injury, Obs (common rice (ORYSA)): 0%; % visual injury, Obs ([3]; VIOTR, 10 g ae/ha): 0%; pest or weed control at 10 g/ha ([14]; Bassia scoparia, post-emergence, 10 g ae/ha, read-out: % visual injury, Obs): 0%; pest or weed control at 10 g/ha [15]: 40%; % visual injury, Obs ([4]; CYPES, 10 g ae/ha): 0%; pest or weed control at 10 g/ha ([10]; Abutilon theophrasti, post-emergence, ABUTH, 10 g ae/ha, read-out: % visual injury, Obs): 35%; plant injury at 10 g/ha ([6]; read-out: % visual injury, Obs): 20%; % visual injury, Obs (winter wheat (TRZAW) [7]; TRZAW, 10 g ae/ha): 0%; % visual injury, Obs ([8]; CIRAR, 10 g ae/ha): 60%; % visual injury, Obs (maize (ZEAMX); ZEAMX, 10 g ae/ha): 0%
